Source: publication PMC4521150, “Discovery of Novel Inhibitors and Fluorescent Probe Targeting NAMPT” (Scientific Reports, 2015)

The molecules below were run against T1, recombinant human NAMPT (Homo sapiens, UniProt P43490) (assay: HTS / fixed-concentration NAMPT activity screen (fluorometric)). Conditions: 20 μM compound; analogues of the 46 non-fluorescent inhibitors.
T1 construct: His tag (N); made in house; host or cells: E. coli BL21-CodonPlus (DE3)-RIL, pET21a+ vector
Assay type: biochemical
Text: Using our previously established high throughput screening (HTS) platform and recombinant human NAMPT[14][15], we performed a HTS on a chemical library containing 30000 small-molecules (Chemdiv, CA, USA). Our HTS targeting NAMPT was developed based on a fluorometric method for NAMPT activity assay by measuring the fluorescence of nicotinamide mononucleotide (NMN) derivative resulting from the NAMPT enzymatic product NMN through simple chemical reactions (Fig. 1A). The 30000 compounds were dissolved with dimethyl sulfoxide (DMSO); most of compounds were soluble at 10 mM stock solution (94.1%), some compounds insoluble at 10 mM were soluble at 2.5 mM stock solution (4.4%), and the remaining compounds insoluble at 2.5 mM (1.5%) were diluted further during HTS experiments (Fig. 1B). To guarantee the quality of screening, S/N ratio, CV and Z’ factors were monitored throughout the screenings, and all three indices met the requirements of HTS (Fig. 1C–E). After a primary screen and a secondary screen of all compounds at 20 μM, 242 compounds were selected as the hits of NAMPT inhibitors (NAMPT activity < 40%), and the hit rate was ~0.8% (Fig. 1F). […] All these 55 compounds were not reported as NAMPT inhibitors previously. Among the 55 compounds, we noted 46 compounds were non-fluorescent and 9 compounds were fluorescent (Fig. 1F). These fluorescent and non-fluorescent compounds were further studied separately.
HTS was performed using our previously reported method. 0.5 μl stock of each compound (1 mM DMSO stock) was transferred to a 96-well PCR plate for screening. In the primary screening, 5 ng NAMPT in 20 μl reaction buffer [0.4 mM phosphoribosylpyrophosphate (PRPP, Sigma), 2 mM ATP, 0.02% BSA, 2 mM DTT, 12 mM MgCl2 and 50 mM Tris-HCl (pH = 7.5)] was added into each well, the plate was incubated at 37 °C for 5 min, then 4.5 μl substrate of NAM was added to initiate the enzyme reaction, resulting in a final concentration of 2% DMSO, 2 μg/ml NAMPT, 0.2 μM NAM and 20 μM compound. After reacting at 37 °C for 15 min, the enzyme reaction was terminated by heating at 95 °C for 1 min and cooling in an ice bath. The product of NMN was detected through the following approach: after adding 10 μl 20% acetophenone in DMSO and 10 μl 2 M KOH into each well, the mixture was vortex-mixed and kept in ice bath for 2 min. Then 45 μl 88% formic acid was added and the mixture was incubated at 37 °C for 10 min. Finally, 85 μl mixtures in each well were transferred into a flat-bottom 96-well black plate (Greiner), and the fluorescence (F) was measured using a Tecan Infinity M200 plate reader (Tecan Group Ltd.) by setting the excitation and emission wavelength to 382 nm and 445 nm respectively. The last row of each 96-well plate includes six wells of background controls and six wells of reference controls. The relative enzyme activity (Activity%) regulated by specific compound was calculated according to equation (1):
F0 was the averaged fluorescence of six background controls, representing zero activity from a simulated enzyme reaction with only NAMPT but no NAM and compound; F100% was the averaged fluorescence of six reference controls, representing 100% activity from intact enzyme reaction without compound perturbation.
Compounds with Activity% less than 40% were considered as inhibitors and subjected to a secondary screen inhibition validation, in which another background control (FC0), a simulated enzyme reaction with NAMPT and compound but no NAM, was introduced to eliminate the direct and/or indirect influence from compound. At this stage, the Activity% was calculated according to equation (2): […]

T1 sequence (P43490 whole entry): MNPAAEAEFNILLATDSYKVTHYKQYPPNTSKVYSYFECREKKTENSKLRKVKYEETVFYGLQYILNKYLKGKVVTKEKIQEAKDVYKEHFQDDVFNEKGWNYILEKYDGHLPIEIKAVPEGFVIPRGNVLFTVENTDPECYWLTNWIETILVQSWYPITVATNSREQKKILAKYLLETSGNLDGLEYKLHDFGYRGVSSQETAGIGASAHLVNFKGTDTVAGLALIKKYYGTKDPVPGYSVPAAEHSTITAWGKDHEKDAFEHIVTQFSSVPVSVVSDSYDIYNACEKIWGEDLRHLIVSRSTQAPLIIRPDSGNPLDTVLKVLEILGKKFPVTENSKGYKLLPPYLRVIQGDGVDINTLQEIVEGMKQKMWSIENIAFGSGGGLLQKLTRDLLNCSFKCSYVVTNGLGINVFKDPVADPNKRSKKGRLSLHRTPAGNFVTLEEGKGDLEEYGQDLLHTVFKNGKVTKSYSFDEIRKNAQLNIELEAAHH

Structure (SMILES)	NAMPT inhibition activity at 20 μM
COc1ccc(OC)c(CNC(=O)CCCn2c(=O)c3cccn3c3cccnc32)c1 [C799-0387]	No (showed no NAMPT inhibition activity at 20 μM (NAMPT activity ≥40%))
Cc1ccc(OCc2ccc(-c3nc(C#N)c(NCc4cccnc4)o3)o2)cc1 [D301-0100]	No (showed no NAMPT inhibition activity at 20 μM (NAMPT activity ≥40%))
Cc1cccc(OCc2ccc(-c3nc(C#N)c(NCc4cccnc4)o3)o2)c1 [D301-0252]	No (showed no NAMPT inhibition activity at 20 μM (NAMPT activity ≥40%))
Cc1ccccc1OCc1ccc(-c2nc(C#N)c(NCc3cccnc3)o2)o1 [D301-0303]	No (showed no NAMPT inhibition activity at 20 μM (NAMPT activity ≥40%))
Cc1c(Cl)cccc1NC(=O)Cn1nc(C)c2sc3ccccc3c2c1=O [E019-0120]	No (showed no NAMPT inhibition activity at 20 μM (NAMPT activity ≥40%))
Cc1cc(C)c(NC(=O)C(C)n2nc(C)c3sc4ccccc4c3c2=O)c(C)c1 (stereo not shown) [E019-0435]	No (showed no NAMPT inhibition activity at 20 μM (NAMPT activity ≥40%))
Cc1nn(CCCC(=O)Nc2ccccc2C(F)(F)F)c(=O)c2c1sc1ccccc12 [E019-0923]	No (showed no NAMPT inhibition activity at 20 μM (NAMPT activity ≥40%))
COc1cc(OC)c(NC(=O)CCCn2nc(C)c3sc4ccccc4c3c2=O)cc1Cl [E019-0951]	No (showed no NAMPT inhibition activity at 20 μM (NAMPT activity ≥40%))
Cc1ccccc1CNC(=O)CCCn1nc(C)c2sc3ccccc3c2c1=O [E019-1139]	No (showed no NAMPT inhibition activity at 20 μM (NAMPT activity ≥40%))
CC(=O)c1cccc(NC(=O)Cc2noc3ccccc23)c1 [E207-0513]	No (showed no NAMPT inhibition activity at 20 μM (NAMPT activity ≥40%))
COc1ccc(CNC(=O)Cn2c(=O)c3cccn3c3cccnc32)cc1 [E524-0113]	No (showed no NAMPT inhibition activity at 20 μM (NAMPT activity ≥40%))
Cc1ccccc1CNC(=O)Cn1c(=O)c2cccn2c2cccnc21 [E524-0298]	No (showed no NAMPT inhibition activity at 20 μM (NAMPT activity ≥40%))
O=C(Cn1c(=O)c2cccn2c2cccnc21)NCc1ccccc1F [E524-0299]	No (showed no NAMPT inhibition activity at 20 μM (NAMPT activity ≥40%))
O=C(Cn1c(=O)c2cccn2c2cccnc21)NCc1cccc(F)c1 [E524-0302]	No (showed no NAMPT inhibition activity at 20 μM (NAMPT activity ≥40%))
Cc1ccc(Cl)cc1NC(=O)CCCn1c(=O)c2cccn2c2cccnc21 [E524-1295]	No (showed no NAMPT inhibition activity at 20 μM (NAMPT activity ≥40%))
Cc1ccc(NC(=O)CCCn2c(=O)c3cccn3c3cccnc32)c(Cl)c1 [E524-1338]	No (showed no NAMPT inhibition activity at 20 μM (NAMPT activity ≥40%))
COc1ccc(Cl)cc1NC(=O)CCCn1c(=O)c2cccn2c2cccnc21 [E524-1372]	No (showed no NAMPT inhibition activity at 20 μM (NAMPT activity ≥40%))
CCOc1ccc(CCNC(=O)CCCn2c(=O)c3cccn3c3cccnc32)cc1 [E524-1469]	No (showed no NAMPT inhibition activity at 20 μM (NAMPT activity ≥40%))
COc1ccc(OC)c(CCNC(=O)CCCn2c(=O)c3cccn3c3cccnc32)c1 [E524-1470]	No (showed no NAMPT inhibition activity at 20 μM (NAMPT activity ≥40%))
COc1cccc(CNC(=O)CCCn2c(=O)c3cccn3c3cccnc32)c1OC [E524-1489]	No (showed no NAMPT inhibition activity at 20 μM (NAMPT activity ≥40%))

Structure (SMILES)	NAMPT inhibition activity at 20 μM
COc1ccc(Br)cc1CNC(=O)CCCn1c(=O)c2cccn2c2cccnc21 [E524-1499]	No (showed no NAMPT inhibition activity at 20 μM (NAMPT activity ≥40%))
CCC(C)NC(=O)c1ccc(Cn2c(=O)c3cccn3c3cccnc32)cc1 (stereo not shown) [E524-1568]	No (showed no NAMPT inhibition activity at 20 μM (NAMPT activity ≥40%))
O=C(NCc1ccccc1Cl)c1ccc(Cn2c(=O)c3cccn3c3cccnc32)cc1 [E524-1573]	Yes
COc1ccc(CCNC(=O)c2ccc(Cn3c(=O)c4cccn4c4cccnc43)cc2)cc1OC [E524-1586]	No (showed no NAMPT inhibition activity at 20 μM (NAMPT activity ≥40%))
CN(C)CCNC(=O)c1ccc(Cn2c(=O)c3cccn3c3cccnc32)cc1 [E524-1589]	No (showed no NAMPT inhibition activity at 20 μM (NAMPT activity ≥40%))
CC(C)NC(=O)c1ccc(Cn2c(=O)c3cccn3c3cccnc32)cc1 [E524-1612]	No (showed no NAMPT inhibition activity at 20 μM (NAMPT activity ≥40%))
CCCNC(=O)c1ccc(Cn2c(=O)c3cccn3c3cccnc32)cc1 [E524-1613]	No (showed no NAMPT inhibition activity at 20 μM (NAMPT activity ≥40%))
CCOCCCNC(=O)c1ccc(Cn2c(=O)c3cccn3c3cccnc32)cc1 [E524-1662]	No (showed no NAMPT inhibition activity at 20 μM (NAMPT activity ≥40%))
CC(C)OCCCNC(=O)c1ccc(Cn2c(=O)c3cccn3c3cccnc32)cc1 [E524-1673]	No (showed no NAMPT inhibition activity at 20 μM (NAMPT activity ≥40%))
COc1ccc(CNC(=O)c2ccc(Cn3c(=O)c4cccn4c4cccnc43)cc2)c(OC)c1 [E524-1754]	No (showed no NAMPT inhibition activity at 20 μM (NAMPT activity ≥40%))
CN(C)c1ccc(CNC(=O)c2ccc(Cn3c(=O)c4cccn4c4cccnc43)cc2)cc1 [E524-1758]	No (showed no NAMPT inhibition activity at 20 μM (NAMPT activity ≥40%))
CCOc1ccc(CCNC(=O)c2ccc(Cn3c(=O)c4cccn4c4cccnc43)cc2)cc1 [E524-1767]	No (showed no NAMPT inhibition activity at 20 μM (NAMPT activity ≥40%))
COc1ccc(Cl)cc1NC(=O)NCc1noc2ccccc12 [E567-0019]	No (showed no NAMPT inhibition activity at 20 μM (NAMPT activity ≥40%))
O=C(NCc1ccc(Cl)cc1)NCc1noc2ccccc12 [E567-0228]	No (showed no NAMPT inhibition activity at 20 μM (NAMPT activity ≥40%))
CCOc1ccccc1NC(=O)NCc1noc2ccc(C)cc12 [E569-0079]	No (showed no NAMPT inhibition activity at 20 μM (NAMPT activity ≥40%))
COc1ccc(OC)c(CNC(=O)NCc2noc3ccc(C)cc23)c1 [E569-0193]	No (showed no NAMPT inhibition activity at 20 μM (NAMPT activity ≥40%))
Cc1ccc2onc(CNC(=O)Nc3ccccc3C#N)c2c1 [E569-0217]	No (showed no NAMPT inhibition activity at 20 μM (NAMPT activity ≥40%))
O=C(COc1ccc(F)cc1)Nc1ccccc1C(=O)OCc1cc(=O)n2ccsc2n1 [G357-1695]	No (showed no NAMPT inhibition activity at 20 μM (NAMPT activity ≥40%))
Cc1cn2c(=O)cc(COC(=O)c3cccc(NC(=O)C(C)Oc4ccccc4)c3)nc2s1 (stereo not shown) [G357-2118]	No (showed no NAMPT inhibition activity at 20 μM (NAMPT activity ≥40%))
Cc1ccc2c(=O)cc(CSc3nnc(-c4ccccc4)n3C)[nH]c2c1C [G751-0753]	No (showed no NAMPT inhibition activity at 20 μM (NAMPT activity ≥40%))
